Assay results as given in patent US20150079590A1, “CHARACTERIZATION AND ANALYSIS OF THE COMPOSITION AND DYNAMICS OF THE MAMMALIAN RIBOPROTEOME” (Beth Israel Deaconess Medical Center, Inc., priority 2013, published 2015).

Legend:
[1] = tested on: ribosome-mRNA complexes of PC3 prostate cancer cells; experiment: Puromycin-mediated dissociation of ribosome-mRNA complexes, western blot of polysomal fractions; type: biochemical, human; conditions: 1 mM puromycin in lysis buffer, 37° C. 15 min
Experimental: Puromycin-induced polysome dissociation was carried out by the addition of 1 mM puromycin directly to the lysis buffer lacking cycloheximide as previously described (Blobel and Sabatini, Proc Natl Acad Sci USA 68:390-394, 1971; Fuchs et al., J Mol Biol. 410:118-130, 2011). Briefly, following lysis, the samples were incubated at 37° C. for 15 min to dissociate ribosome-mRNA complexes. Lysates were centrifuged at 13,000 rpm for 5 min at 4° C., and the supernatant carefully removed and loaded on a 15%-50% sucrose gradient. Gradients were centrifuged and fractionated as described above.
Cells were lysed in lysis buffer containing Complete Mini protease inhibitors (EDTA free) (Roche) and a Phosphatase Inhibitor cocktail (Thermo Scientific). 5-50 μg of total protein was subjected to SDS-PAGE on 4-12% Bis-Tris acrylamide NuPAGE gels in MOPS SDS running buffer (Invitrogen). The following primary antibodies were used: MARCKS, phospho-MARCKS (S152/156), Integrin β1, Calmodulin, Hsp27, Hsp60, RpL13a, RpL7a, and RpS6 (all Cell Signaling), HSP90, (BD Bioscience; BD Transduction Laboratories), hnRNPC1/C2 (Millipore), Rps14 and β-actin (all from Santa Cruz Biotechnologies). The NPM antibody was from DAKO and the IGF2BP3 antibody was from ProteinTech. Subsequently, membranes were incubated with secondary, HRP-tagged antibodies (Amersham) and signals were visualized with ECL or ECL plus (Amersham). […]

[2] = tested on: riboproteomes of PPC1 prostate cancer cells; experiment: SILAC riboproteomic analysis of polysomes upon mTOR inhibition; type: cell-based, human
Experimental: SILAC labeled protein mixtures were run by SDS-PAGE and gel lanes were cut into 8 sections for overnight digestion at pH 8.0 with modified sequencing grade trypsin (Promega Corp.). Peptide mixtures were eluted and each gel section was analyzed separately by microcapillary liquid chromatography-tandem mass spectrometry (LC-MS/MS) using the EASY-nLC nanoflow HPLC (Thermo Fisher Scientific) with a 75 μm inner diameter×15 cm length Picofrit capillary column (New Objective, Inc.) self-packed with 5 μm Magic C18 resin (Michrom Bioresources) coupled to a hybrid LTQ Orbitrap XL-ETD mass spectrometer (Thermo Fisher Scientific). The LTQ Orbitrap XL was operated in data-dependent acquisition (DDA) Top 5 mode (1 profile FT-MS spectrum followed by 6 centroided IT-MS/MS spectra). The resolution was 30,000 in FT-MS mode and MS/MS spectra were read out at low resolution in the LTQ XL ion trap. […] Carbamidomethylation of cysteine was set as fixed modification and variable modifications were oxidation of methionine and protein N-acetylation. […] Initial peptide mass tolerance was set to 12 ppm and fragment ion mass tolerance was set to 0.8 Da. Two missed cleavages were allowed and the minimal length required for a peptide was six amino acids. […]

[3] = tested on: binding of LARP1 at the polysome; experiment: Micrococcal nuclease (MN) assay on pooled sucrose gradient fractions, ribosome pelleting and western blot; conditions: cells treated with PP242 prior to analysis
Experimental: Pooled sucrose gradient fractions containing LARP1 protein, were treated with and without MN. Ribosomes were subsequently pelleted by ultracentrifugation, and the protein in supernatant and pellet isolated for western blot analysis.

| SMILES | RpS6 and RpL13a on polyribosomes ([1]; pooled polysomal fractions) | presence of MARCKS in polyribosome fractions ([1]; PC3 cells) | disassociation of proteins incl. ribosomal proteins (RpL4, RpL6, RpS6) from the riboproteome ([2]; PP242 500 nM for three hours vs DMSO) | impact on the composition of the riboproteome ([2]; rapamycin 20 nM or PP242 500 nM for three hours vs DMSO, SILAC mass spectrometry of polysomes) | LARP1 in supernatant after ribosome pelleting [3] | PABP association with polysome fractions [3] |
| --- | --- | --- | --- | --- | --- | --- |
| COc1ccc(C[C@H](N)C(=O)N[C@H]2[C@@H](O)[C@H](n3cnc4c(N(C)C)ncnc43)O[C@@H]2CO)cc1 [puromycin] | loss of RpS6 and RpL13a from polyribosomes | dramatically decreased | – | – | – | – |
| CC(C)n1nc(-c2cc3cc(O)ccc3[nH]2)c2c(N)ncnc21 [PP242] | – | – | rapid and significant disassociation from the riboproteome | much stronger and more robust perturbation of the riboproteome | more LARP1 observed in the supernatant | remain tightly intact with polysome fractions |
